In ChEMBL document CHEMBL5465560, “Selectivity Literature for EUbOPEN Chemogenomic Library” (2024):
Each block holds one molecule with its values, some of them ahead of it.

What was measured:
[1] = target: Receptor-type tyrosine-protein kinase FLT3 (Homo sapiens) (UniProt P36888); test: Selectivity interaction (Ambit KINOMEscan and KiNATiv profiling in Jurkat cells) EUB0000090b FLT3; format: cell-based; conditions: at 1 µM
[2] = target: Mitogen-activated protein kinase 14 (Homo sapiens, UniProt Q16539); test: Selectivity interaction (KinomeScan (DiscoverX)) EUB0001079a MAPK14; conditions: at 1 µM
[3] = target: Serine/threonine-protein kinase 16 (Homo sapiens, UniProt O75716); test: Selectivity interaction (KinomeScan (DiscoverX)) EUB0000607a STK16; conditions: at 10 µM
[4] = target: RAF proto-oncogene serine/threonine-protein kinase (Homo sapiens) (UniProt P04049); test: Selectivity interaction (KinomeScan (DiscoverX)) EUB0001619a RAF1; conditions: at 1 µM
[5] = target: T1, Serine/threonine-protein kinase Nek5 (Homo sapiens) (UniProt Q6P3R8); test: Selectivity interaction (KinomeScan (DiscoverX)) EUB0000595a NEK5; conditions: at 10 µM
T1 sequence (whole entry): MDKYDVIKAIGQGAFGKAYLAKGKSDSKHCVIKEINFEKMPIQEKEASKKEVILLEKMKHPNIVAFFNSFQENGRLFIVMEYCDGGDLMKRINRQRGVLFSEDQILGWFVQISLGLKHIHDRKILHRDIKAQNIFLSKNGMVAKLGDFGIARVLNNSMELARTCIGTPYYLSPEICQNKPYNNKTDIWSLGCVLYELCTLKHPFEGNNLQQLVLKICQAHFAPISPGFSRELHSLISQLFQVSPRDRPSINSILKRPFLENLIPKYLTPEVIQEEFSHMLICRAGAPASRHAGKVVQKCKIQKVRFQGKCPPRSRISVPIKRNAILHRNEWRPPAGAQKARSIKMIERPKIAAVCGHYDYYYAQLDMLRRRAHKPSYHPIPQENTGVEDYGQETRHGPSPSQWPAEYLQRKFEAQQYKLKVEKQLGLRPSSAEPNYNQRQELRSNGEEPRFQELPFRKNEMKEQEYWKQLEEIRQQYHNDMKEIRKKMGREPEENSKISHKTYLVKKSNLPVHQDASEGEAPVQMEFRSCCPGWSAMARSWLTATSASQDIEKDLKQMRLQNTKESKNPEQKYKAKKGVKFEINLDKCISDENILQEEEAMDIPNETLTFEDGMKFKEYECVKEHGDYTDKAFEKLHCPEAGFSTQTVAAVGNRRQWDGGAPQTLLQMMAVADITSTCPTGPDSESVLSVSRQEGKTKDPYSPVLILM

[6] = target: T2, Serine/threonine-protein kinase 3 (Homo sapiens) (UniProt Q13188); test: Selectivity interaction (KinomeScan (DiscoverX)) EUB0000595a STK3; conditions: at 10 µM
T2 sequence (whole entry): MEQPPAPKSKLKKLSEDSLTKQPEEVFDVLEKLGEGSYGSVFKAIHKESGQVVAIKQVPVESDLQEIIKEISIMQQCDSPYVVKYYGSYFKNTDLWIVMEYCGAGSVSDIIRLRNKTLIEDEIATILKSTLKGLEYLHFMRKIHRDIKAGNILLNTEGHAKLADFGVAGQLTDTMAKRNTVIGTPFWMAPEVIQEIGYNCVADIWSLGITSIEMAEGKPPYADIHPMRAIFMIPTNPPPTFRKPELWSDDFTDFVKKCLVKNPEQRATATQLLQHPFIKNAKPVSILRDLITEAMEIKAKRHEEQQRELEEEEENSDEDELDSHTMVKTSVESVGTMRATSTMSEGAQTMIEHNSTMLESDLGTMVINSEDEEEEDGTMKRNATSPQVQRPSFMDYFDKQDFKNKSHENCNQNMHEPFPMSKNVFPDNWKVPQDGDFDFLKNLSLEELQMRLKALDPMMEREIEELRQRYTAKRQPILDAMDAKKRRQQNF

[7] = target: Platelet-derived growth factor receptor beta (Homo sapiens, UniProt P09619); test: Selectivity interaction (Upstate Kinase Profiler service (Millipore)) EUB0000056c PDGFRB; conditions: at 1 µM
[8] = target: Mitogen-activated protein kinase 11 (Homo sapiens) (UniProt Q15759); test: Selectivity interaction (Kinase panel (KiNativ target engagement assay in Jurkat cells)) EUB0001635a MAPK11; format: cell-based; conditions: Selectivity number of off-targets 0.0, Selectivity number of targets 233.0, Source Knowledge https://www.sciencedirect.com/science/article/pii/S2451945619300674?via%3Dihub, at 1 µM
[9] = target: Serine-protein kinase ATM (Homo sapiens) (UniProt Q13315); test: Selectivity interaction (ActivX KiNativ screen (kinase selectivity in THP-1 cell lysates)) EUB0000639a ATM; format: subcellular; conditions: lysate
[10] = target: T3, Dual specificity mitogen-activated protein kinase kinase 3 (Homo sapiens) (UniProt P46734); test: Selectivity interaction (ActivX KiNativ screen (kinase selectivity in THP-1 cell lysates)) EUB0000639a MAP2K3; format: subcellular; conditions: lysate
T3 sequence (whole entry): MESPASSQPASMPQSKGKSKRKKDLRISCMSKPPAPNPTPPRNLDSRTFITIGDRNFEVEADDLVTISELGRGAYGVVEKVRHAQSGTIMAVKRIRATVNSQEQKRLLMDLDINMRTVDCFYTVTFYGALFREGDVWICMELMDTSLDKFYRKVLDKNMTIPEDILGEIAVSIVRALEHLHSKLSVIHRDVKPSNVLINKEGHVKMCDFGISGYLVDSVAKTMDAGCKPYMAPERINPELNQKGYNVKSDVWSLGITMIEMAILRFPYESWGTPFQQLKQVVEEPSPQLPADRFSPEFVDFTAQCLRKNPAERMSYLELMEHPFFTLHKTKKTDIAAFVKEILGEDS

Sequence of Serine-protein kinase ATM (Homo sapiens) (Q13315 whole entry): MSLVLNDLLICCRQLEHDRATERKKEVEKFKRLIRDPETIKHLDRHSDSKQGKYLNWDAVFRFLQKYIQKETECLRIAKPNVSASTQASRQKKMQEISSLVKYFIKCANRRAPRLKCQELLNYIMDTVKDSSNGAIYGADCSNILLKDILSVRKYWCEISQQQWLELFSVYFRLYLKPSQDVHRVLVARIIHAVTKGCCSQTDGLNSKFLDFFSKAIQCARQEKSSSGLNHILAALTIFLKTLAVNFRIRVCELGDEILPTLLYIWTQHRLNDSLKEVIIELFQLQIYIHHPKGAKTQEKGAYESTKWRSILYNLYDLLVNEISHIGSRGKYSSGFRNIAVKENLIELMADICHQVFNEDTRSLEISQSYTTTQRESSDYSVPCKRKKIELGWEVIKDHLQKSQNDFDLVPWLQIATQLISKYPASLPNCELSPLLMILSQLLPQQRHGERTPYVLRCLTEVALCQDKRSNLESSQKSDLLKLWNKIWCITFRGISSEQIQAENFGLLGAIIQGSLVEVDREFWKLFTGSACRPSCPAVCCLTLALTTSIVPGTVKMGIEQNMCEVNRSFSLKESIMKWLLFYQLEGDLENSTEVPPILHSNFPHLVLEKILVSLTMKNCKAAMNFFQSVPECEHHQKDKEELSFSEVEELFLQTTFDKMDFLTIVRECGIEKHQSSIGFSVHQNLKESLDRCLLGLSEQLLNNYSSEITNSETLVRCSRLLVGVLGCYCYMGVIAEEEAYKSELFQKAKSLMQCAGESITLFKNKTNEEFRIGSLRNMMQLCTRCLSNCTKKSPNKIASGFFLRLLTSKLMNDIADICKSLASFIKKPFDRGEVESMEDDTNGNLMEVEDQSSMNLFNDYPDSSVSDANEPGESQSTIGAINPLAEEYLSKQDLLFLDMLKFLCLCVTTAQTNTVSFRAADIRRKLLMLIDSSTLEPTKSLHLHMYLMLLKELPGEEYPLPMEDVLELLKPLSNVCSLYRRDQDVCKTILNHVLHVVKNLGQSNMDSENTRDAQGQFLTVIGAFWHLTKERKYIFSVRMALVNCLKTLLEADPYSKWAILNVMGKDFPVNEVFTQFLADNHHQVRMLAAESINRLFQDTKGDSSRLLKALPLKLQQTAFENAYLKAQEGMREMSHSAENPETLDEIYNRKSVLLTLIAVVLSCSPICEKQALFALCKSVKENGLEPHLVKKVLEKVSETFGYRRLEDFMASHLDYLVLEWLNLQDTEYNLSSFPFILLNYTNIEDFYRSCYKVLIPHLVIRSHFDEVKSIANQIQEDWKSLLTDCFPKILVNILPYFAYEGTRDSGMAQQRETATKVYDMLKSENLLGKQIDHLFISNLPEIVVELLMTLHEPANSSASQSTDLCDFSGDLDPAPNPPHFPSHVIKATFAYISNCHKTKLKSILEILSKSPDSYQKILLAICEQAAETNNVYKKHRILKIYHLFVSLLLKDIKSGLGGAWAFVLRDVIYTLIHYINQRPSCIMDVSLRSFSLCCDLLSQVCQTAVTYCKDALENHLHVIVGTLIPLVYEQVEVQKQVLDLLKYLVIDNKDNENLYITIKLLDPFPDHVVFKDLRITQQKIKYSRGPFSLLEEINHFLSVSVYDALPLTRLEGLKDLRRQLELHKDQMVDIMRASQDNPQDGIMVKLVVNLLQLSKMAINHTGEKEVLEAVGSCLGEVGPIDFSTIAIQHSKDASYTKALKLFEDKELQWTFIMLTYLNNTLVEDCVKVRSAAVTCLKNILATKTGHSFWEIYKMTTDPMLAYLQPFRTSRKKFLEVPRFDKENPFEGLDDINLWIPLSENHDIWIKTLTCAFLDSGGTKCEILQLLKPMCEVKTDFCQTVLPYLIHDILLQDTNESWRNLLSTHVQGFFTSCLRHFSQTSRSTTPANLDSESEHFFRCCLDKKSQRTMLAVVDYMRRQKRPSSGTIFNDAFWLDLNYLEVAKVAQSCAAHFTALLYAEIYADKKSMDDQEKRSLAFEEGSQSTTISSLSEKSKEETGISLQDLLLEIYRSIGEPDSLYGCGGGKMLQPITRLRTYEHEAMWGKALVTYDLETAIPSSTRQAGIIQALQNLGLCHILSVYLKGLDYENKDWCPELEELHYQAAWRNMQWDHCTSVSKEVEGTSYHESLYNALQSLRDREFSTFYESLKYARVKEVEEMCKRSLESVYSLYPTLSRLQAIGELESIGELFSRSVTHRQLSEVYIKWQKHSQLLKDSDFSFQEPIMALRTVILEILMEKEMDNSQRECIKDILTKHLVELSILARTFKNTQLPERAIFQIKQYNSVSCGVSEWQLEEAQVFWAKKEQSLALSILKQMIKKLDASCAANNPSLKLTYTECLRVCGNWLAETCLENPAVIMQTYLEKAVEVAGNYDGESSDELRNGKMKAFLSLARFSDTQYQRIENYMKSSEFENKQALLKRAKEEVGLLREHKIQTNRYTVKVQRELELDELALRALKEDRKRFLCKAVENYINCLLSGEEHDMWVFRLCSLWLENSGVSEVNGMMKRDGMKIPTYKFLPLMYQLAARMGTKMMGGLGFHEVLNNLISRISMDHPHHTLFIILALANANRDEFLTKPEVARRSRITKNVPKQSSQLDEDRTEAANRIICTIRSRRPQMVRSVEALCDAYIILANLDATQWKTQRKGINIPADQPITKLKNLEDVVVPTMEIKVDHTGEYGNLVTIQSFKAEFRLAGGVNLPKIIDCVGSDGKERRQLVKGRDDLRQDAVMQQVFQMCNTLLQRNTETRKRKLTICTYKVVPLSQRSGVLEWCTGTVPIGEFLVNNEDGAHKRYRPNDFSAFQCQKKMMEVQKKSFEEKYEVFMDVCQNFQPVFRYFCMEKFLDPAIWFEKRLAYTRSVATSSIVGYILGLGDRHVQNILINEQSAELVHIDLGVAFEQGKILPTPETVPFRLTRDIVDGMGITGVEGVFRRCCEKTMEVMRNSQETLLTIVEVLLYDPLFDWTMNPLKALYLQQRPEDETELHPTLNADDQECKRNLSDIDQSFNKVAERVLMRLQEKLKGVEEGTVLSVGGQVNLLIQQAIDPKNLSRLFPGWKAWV
Sequence of Mitogen-activated protein kinase 14 (Q16539 whole entry): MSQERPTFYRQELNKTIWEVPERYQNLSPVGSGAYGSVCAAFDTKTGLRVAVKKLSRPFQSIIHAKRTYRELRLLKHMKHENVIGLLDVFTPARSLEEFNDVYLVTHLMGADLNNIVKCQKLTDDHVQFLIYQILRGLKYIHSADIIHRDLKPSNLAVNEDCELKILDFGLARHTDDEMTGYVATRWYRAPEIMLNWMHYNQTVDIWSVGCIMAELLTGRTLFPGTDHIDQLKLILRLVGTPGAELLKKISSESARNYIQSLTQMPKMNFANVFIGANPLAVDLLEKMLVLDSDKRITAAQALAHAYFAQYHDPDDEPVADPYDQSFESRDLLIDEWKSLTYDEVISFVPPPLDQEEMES
Sequence of Receptor-type tyrosine-protein kinase FLT3 (Homo sapiens) (P36888 whole entry): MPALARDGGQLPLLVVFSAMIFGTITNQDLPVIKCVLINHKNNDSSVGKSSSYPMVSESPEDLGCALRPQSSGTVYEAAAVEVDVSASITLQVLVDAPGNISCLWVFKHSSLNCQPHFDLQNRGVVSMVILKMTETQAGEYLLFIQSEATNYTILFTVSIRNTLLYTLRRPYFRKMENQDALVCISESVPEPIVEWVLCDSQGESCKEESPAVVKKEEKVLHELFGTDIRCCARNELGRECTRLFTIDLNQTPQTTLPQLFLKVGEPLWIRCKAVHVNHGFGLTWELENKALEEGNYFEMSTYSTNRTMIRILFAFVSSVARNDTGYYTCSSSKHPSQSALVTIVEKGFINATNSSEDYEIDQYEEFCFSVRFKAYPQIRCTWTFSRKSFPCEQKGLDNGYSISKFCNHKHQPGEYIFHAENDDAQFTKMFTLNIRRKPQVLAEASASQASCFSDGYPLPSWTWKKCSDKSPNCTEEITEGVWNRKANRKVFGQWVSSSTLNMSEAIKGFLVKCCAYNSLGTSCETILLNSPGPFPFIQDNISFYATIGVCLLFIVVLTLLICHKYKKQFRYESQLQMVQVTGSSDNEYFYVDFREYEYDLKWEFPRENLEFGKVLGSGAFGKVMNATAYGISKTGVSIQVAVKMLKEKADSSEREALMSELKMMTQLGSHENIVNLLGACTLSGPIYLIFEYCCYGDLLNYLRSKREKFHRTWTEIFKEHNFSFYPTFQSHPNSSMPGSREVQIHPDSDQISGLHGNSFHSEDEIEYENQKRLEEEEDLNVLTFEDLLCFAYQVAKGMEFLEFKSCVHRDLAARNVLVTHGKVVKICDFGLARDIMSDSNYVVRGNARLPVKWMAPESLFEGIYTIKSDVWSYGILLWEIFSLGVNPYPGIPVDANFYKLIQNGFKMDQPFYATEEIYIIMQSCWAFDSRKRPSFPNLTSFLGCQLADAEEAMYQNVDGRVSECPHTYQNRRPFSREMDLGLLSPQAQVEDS
Sequence of Mitogen-activated protein kinase 11 (Homo sapiens) (Q15759 whole entry): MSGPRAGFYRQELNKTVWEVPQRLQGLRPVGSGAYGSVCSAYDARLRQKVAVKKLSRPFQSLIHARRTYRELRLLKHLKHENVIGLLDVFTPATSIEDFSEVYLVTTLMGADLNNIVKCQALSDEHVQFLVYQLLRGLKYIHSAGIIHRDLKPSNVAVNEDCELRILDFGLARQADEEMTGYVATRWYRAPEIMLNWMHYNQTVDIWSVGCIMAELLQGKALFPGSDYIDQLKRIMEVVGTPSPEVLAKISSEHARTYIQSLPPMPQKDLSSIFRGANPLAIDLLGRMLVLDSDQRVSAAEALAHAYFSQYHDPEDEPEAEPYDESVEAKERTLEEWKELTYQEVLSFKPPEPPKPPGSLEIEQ
Sequence of Serine/threonine-protein kinase 16 (O75716 whole entry): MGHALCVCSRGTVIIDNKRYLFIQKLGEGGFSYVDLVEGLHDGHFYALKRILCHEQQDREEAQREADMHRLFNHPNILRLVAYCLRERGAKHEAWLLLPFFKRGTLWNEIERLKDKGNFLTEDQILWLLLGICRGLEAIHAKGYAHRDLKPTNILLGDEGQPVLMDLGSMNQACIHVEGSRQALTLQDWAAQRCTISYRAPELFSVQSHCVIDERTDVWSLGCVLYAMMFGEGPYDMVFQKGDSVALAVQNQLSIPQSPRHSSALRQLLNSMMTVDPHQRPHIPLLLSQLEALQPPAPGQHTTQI

SMILES: CN(C)C/C=C/C(=O)Nc1ccc(C(=O)N2CCCC(Nc3ncc(Cl)c(-c4c[nH]c5ccccc45)n3)C2)cc1 (stereo not drawn)
% of control [1]: 95%

SMILES: Nc1cnc(N2CCc3cc(S(=O)(=O)Nc4c(F)cc(Cl)cc4F)cc(N4CCCC4=O)c32)nc1 [TP-020n]
% of control [2]: 100%

SMILES: CNC(=O)Nc1ccc(-c2nc(N3CC4CCC(C3)O4)c3cnn(C4CCC5(CC4)OCCO5)c3n2)cc1
% of control [3]: 98%

SMILES: N#Cc1cccc(-c2c[nH]c3ncnc(N4CCOCC4)c23)c1
% of control [4]: 71%

SMILES: COCC(=O)NC/C=C/c1ccc2ncnc(Nc3ccc(Oc4ccc(C)nc4)c(C)c3)c2c1 [CP-724714]
% of control [5]: 100%
% of control [6]: 82%

% of inhibition [7]: -4%
SMILES: Cc1ccc(-c2ccc3c(ccc4sc5c(c43)NC[C@@H](C)NC5=O)n2)cn1

SMILES: C=CC(=O)Nc1ccc(C(=O)Nc2[nH]nc3c2CN(C(=O)N[C@H](CN(C)C)c2ccccc2)C3(C)C)cc1
% of engagement [8]: -9.9%

% of inhibition ([9]; at 0.01 µM): 12.7%
% of inhibition ([9]; at 0.04 µM): -2.1%
% of inhibition ([9]; at 0.2 µM): -2.2%
% of inhibition ([9]; at 1 µM): -15.7%
% of inhibition ([9]; at 5 µM): 24%
% of inhibition ([10]; at 0.01 µM): 15.1%
% of inhibition ([10]; at 0.04 µM): -11.7%
% of inhibition ([10]; at 0.2 µM): -29.6%
% of inhibition ([10]; at 1 µM): -46.2%
% of inhibition ([10]; at 5 µM): -40.1%
SMILES: CC[C@@H]1[C@H](F)C(=O)N[C@@H]1COc1nccc2cc(C(N)=O)c(OC)cc12 [ZIMLOVISERTIB]
